Results: the NIST ThermoML archive (doi:10.1016/j.tca.2006.05.016)
Numbers after ± are expanded uncertainties.

What was measured:
[1] = molar heat capacity at constant pressure; settings: 101.33 kPa, Vacuum adiabatic calorimetry
[2] = Molar enthalpy of transition or fusion; settings: Crystal 2; Adiabatic calorimetry
[3] = Crystal 2; Adiabatic calorimetry

O.O=C([O-])[C@H](O)[C@@H](O)CO.[Na+] [sodium (2R,3S)-2,3,4-trihydroxybutanoate hydrate]
[1]
Settings	molar heat capacity at constant pressure [J/K/mol]
77.95 K, Crystal 2	75 ± 0.26
79.37 K, Crystal 2	76.72 ± 0.27
81.36 K, Crystal 2	79.56 ± 0.28
83.91 K, Crystal 2	84.79 ± 0.3
86.36 K, Crystal 2	87.68 ± 0.3
88.76 K, Crystal 2	90.45 ± 0.31
91.09 K, Crystal 2	93.27 ± 0.35
93.36 K, Crystal 2	96.08 ± 0.36
95.59 K, Crystal 2	98.2 ± 0.36
97.78 K, Crystal 2	100.57 ± 0.37
99.92 K, Crystal 2	102.71 ± 0.38
102.04 K, Crystal 2	105.14 ± 0.38
104.12 K, Crystal 2	107.69 ± 0.39
106.16 K, Crystal 2	109.95 ± 0.4
108.18 K, Crystal 2	111.9 ± 0.4
110.17 K, Crystal 2	113.31 ± 0.41
112.13 K, Crystal 2	114.95 ± 0.41
114.07 K, Crystal 2	116.19 ± 0.41
115.97 K, Crystal 2	117.54 ± 0.42
117.86 K, Crystal 2	118.71 ± 0.42
119.77 K, Crystal 2	120.32 ± 0.43
121.62 K, Crystal 2	121.99 ± 0.43
123.51 K, Crystal 2	123.24 ± 0.43
125.33 K, Crystal 2	124.71 ± 0.44
127.14 K, Crystal 2	125.29 ± 0.44
128.86 K, Crystal 2	126.35 ± 0.44
130.68 K, Crystal 2	127.87 ± 0.45
132.5 K, Crystal 2	128.63 ± 0.45
134.24 K, Crystal 2	131.67 ± 0.46
135.97 K, Crystal 2	132.68 ± 0.46
137.73 K, Crystal 2	133.19 ± 0.46
139.48 K, Crystal 2	134.44 ± 0.47
141.23 K, Crystal 2	136.19 ± 0.47
142.86 K, Crystal 2	137.59 ± 0.48
144.61 K, Crystal 2	138.32 ± 0.48
146.3 K, Crystal 2	140.73 ± 0.49
147.99 K, Crystal 2	140.29 ± 0.48
149.61 K, Crystal 2	141.98 ± 0.49
151.3 K, Crystal 2	143.95 ± 0.5
152.96 K, Crystal 2	145.69 ± 0.5
154.61 K, Crystal 2	147.47 ± 0.51
156.3 K, Crystal 2	148.86 ± 0.51
157.86 K, Crystal 2	150.83 ± 0.52
159.54 K, Crystal 2	152.22 ± 0.52
161.17 K, Crystal 2	153.62 ± 0.52
162.73 K, Crystal 2	154.86 ± 0.53
164.35 K, Crystal 2	156.25 ± 0.53
165.91 K, Crystal 2	156.39 ± 0.53
167.53 K, Crystal 2	158.29 ± 0.54
169.09 K, Crystal 2	159.91 ± 0.54
172.12 K, Crystal 2	160.63 ± 0.55
176.29 K, Crystal 2	162.82 ± 0.55
180.3 K, Crystal 2	165.02 ± 0.56
184.22 K, Crystal 2	166.35 ± 0.56
188.18 K, Crystal 2	168.27 ± 0.57
191.97 K, Crystal 2	170.46 ± 0.57
195.83 K, Crystal 2	171.25 ± 0.58
199.61 K, Crystal 2	172.21 ± 0.58
203.33 K, Crystal 2	173.89 ± 0.58
207.04 K, Crystal 2	175.99 ± 0.59
210.68 K, Crystal 2	177.22 ± 0.59
214.32 K, Crystal 2	179.68 ± 0.6
217.96 K, Crystal 2	181.35 ± 0.61
221.51 K, Crystal 2	183.72 ± 0.61
225 K, Crystal 2	185.96 ± 0.62
228.51 K, Crystal 2	187.72 ± 0.63
231.95 K, Crystal 2	189.41 ± 0.63
235.39 K, Crystal 2	192.26 ± 0.64
238.79 K, Crystal 2	194.53 ± 0.65
242.04 K, Crystal 2	198.57 ± 0.66
245.39 K, Crystal 2	201.48 ± 0.67
248.7 K, Crystal 2	203.61 ± 0.67
252.08 K, Crystal 2	206.16 ± 0.68
255.46 K, Crystal 2	208.87 ± 0.69
258.7 K, Crystal 2	210.99 ± 0.7
262.01 K, Crystal 2	212.53 ± 0.7
265.32 K, Crystal 2	215.68 ± 0.71
268.57 K, Crystal 2	217.65 ± 0.72
271.77 K, Crystal 2	220.53 ± 0.73
275 K, Crystal 2	224.17 ± 0.74
278.12 K, Crystal 2	228.04 ± 0.75
281.3 K, Crystal 2	231.99 ± 0.76
284.42 K, Crystal 2	237.12 ± 0.78
287.53 K, Crystal 2	241.14 ± 0.79
290.52 K, Crystal 2	246.12 ± 0.8
293.51 K, Crystal 2	256.15 ± 260
296.36 K, Crystal 2	269.06 ± 270
299.17 K, Crystal 2	287.71 ± 290
301.89 K, Crystal 2	317.39 ± 320
304.46 K, Crystal 2	360.73 ± 360
306.87 K, Crystal 2	401.98 ± 400
309.17 K, Crystal 2	438.39 ± 440
311.36 K, Crystal 2	491.36 ± 490
318.51 K, Crystal 1	314.18 ± 1
320.91 K, Crystal 1	318.35 ± 1
323.31 K, Crystal 1	325.56 ± 1.1
325.78 K, Crystal 1	328.61 ± 1.1
328.18 K, Crystal 1	335.06 ± 1.1
330.58 K, Crystal 1	339.72 ± 1.1
332.99 K, Crystal 1	345.04 ± 1.1
335.32 K, Crystal 1	351.32 ± 1.1
337.66 K, Crystal 1	358.41 ± 1.1
340.01 K, Crystal 1	364.19 ± 1.2
342.27 K, Crystal 1	369.83 ± 1.2
344.55 K, Crystal 1	376.43 ± 1.2
346.82 K, Crystal 1	381.43 ± 1.2
349.03 K, Crystal 1	386.89 ± 1.2
351.17 K, Crystal 1	394.15 ± 1.3
353.25 K, Crystal 1	400.12 ± 1.3
355.33 K, Crystal 1	406.54 ± 1.3
357.27 K, Crystal 1	412.66 ± 1.3
359.16 K, Crystal 1	419.26 ± 1.3
360.91 K, Crystal 1	423.77 ± 1.4
362.53 K, Crystal 1	426.99 ± 1.4
364.09 K, Crystal 1	434.07 ± 1.4
365.32 K, Crystal 1	439.39 ± 1.4
366.56 K, Crystal 1	441.96 ± 1.4
367.66 K, Crystal 1	446.63 ± 1.4
368.51 K, Crystal 1	453.39 ± 1.5

Settings	Molar enthalpy of transition or fusion [kcal/mol]	Triple point temperature [K]
[2]	1.37 ± 0.0143	–
[3]	–	311.4 ± 0.4
